Experimental data taken from the NIST ThermoML archive (doi:10.1016/j.jct.2018.04.019).

Conditions: Liquid, Vibrating tube method

Cc1ccccc1 [toluene]
Conditions	mass density [kg/m3]
283.16 K, 1020 kPa	876.55
283.16 K, 5010 kPa	879.36
283.16 K, 10030 kPa	882.78
283.16 K, 15050 kPa	886.11
283.16 K, 20080 kPa	889.23
283.16 K, 25060 kPa	892.35
283.16 K, 30040 kPa	895.27
283.16 K, 35080 kPa	898.24
283.16 K, 40060 kPa	901.05
283.16 K, 45050 kPa	903.77
283.16 K, 50010 kPa	906.43
283.16 K, 55060 kPa	909.09
283.16 K, 60030 kPa	911.65
283.16 K, 65050 kPa	914.15
298.15 K, 1040 kPa	862.88
298.15 K, 5040 kPa	865.93
298.15 K, 10030 kPa	869.6
298.15 K, 15050 kPa	873.21
298.15 K, 20040 kPa	876.63
298.15 K, 25050 kPa	879.93
298.15 K, 30060 kPa	883.14
298.15 K, 35020 kPa	886.25
298.15 K, 40040 kPa	889.26
298.15 K, 45070 kPa	892.2
298.15 K, 50040 kPa	895.06
298.15 K, 55040 kPa	897.86
298.15 K, 60030 kPa	900.56
298.15 K, 65020 kPa	903.2
323.15 K, 1050 kPa	839.46
323.15 K, 5050 kPa	843.04
323.15 K, 10030 kPa	847.29
323.15 K, 15010 kPa	851.38
323.15 K, 20010 kPa	855.27
323.15 K, 25060 kPa	859.05
323.15 K, 30080 kPa	862.69
323.15 K, 35020 kPa	866.13
323.15 K, 40010 kPa	869.52
323.15 K, 45060 kPa	872.84
323.15 K, 50010 kPa	875.93
323.15 K, 55010 kPa	879.01
323.15 K, 60050 kPa	882.04
323.15 K, 65030 kPa	884.91
348.15 K, 1060 kPa	815.55
348.15 K, 5070 kPa	819.75
348.15 K, 10010 kPa	824.67
348.15 K, 15030 kPa	829.43
348.15 K, 20030 kPa	833.88
348.15 K, 25020 kPa	838.2
348.15 K, 30080 kPa	842.3
348.15 K, 35050 kPa	846.21
348.15 K, 40050 kPa	849.97
348.15 K, 45070 kPa	853.63
348.15 K, 50020 kPa	857.09
348.15 K, 55060 kPa	860.49
348.15 K, 60040 kPa	863.8
348.15 K, 65070 kPa	867
373.15 K, 1050 kPa	790.86
373.15 K, 5020 kPa	795.87
373.15 K, 10040 kPa	801.74
373.15 K, 15040 kPa	807.26
373.15 K, 20030 kPa	812.38
373.15 K, 25080 kPa	817.35
373.15 K, 30070 kPa	821.93
373.15 K, 35040 kPa	826.36
373.15 K, 40040 kPa	830.59
373.15 K, 45030 kPa	834.57
373.15 K, 50040 kPa	838.5
373.15 K, 55040 kPa	842.23
373.15 K, 60010 kPa	845.81
398.15 K, 1070 kPa	765.25
398.15 K, 5030 kPa	771.26
398.15 K, 10040 kPa	778.22
398.15 K, 15080 kPa	784.74
398.15 K, 20010 kPa	790.62
398.15 K, 25050 kPa	796.25
398.15 K, 30040 kPa	801.49
398.15 K, 35040 kPa	806.48
398.15 K, 40020 kPa	811.17
398.15 K, 45040 kPa	815.71
398.15 K, 50020 kPa	819.96
398.15 K, 55040 kPa	824.15
398.15 K, 60020 kPa	828.11
398.15 K, 65080 kPa	831.99
423.15 K, 1050 kPa	738.06
423.15 K, 5030 kPa	745.45
423.15 K, 10060 kPa	753.93
423.15 K, 15030 kPa	761.54
423.15 K, 20000 kPa	768.41
423.15 K, 25020 kPa	774.89
423.15 K, 30020 kPa	780.87
423.15 K, 35060 kPa	786.56
423.15 K, 40020 kPa	791.82
423.15 K, 45040 kPa	796.87
423.15 K, 50040 kPa	801.63
423.15 K, 55060 kPa	806.24
423.15 K, 60040 kPa	810.55
423.15 K, 65050 kPa	814.77
448.15 K, 1040 kPa	708.96
448.15 K, 5070 kPa	718.48
448.15 K, 10040 kPa	728.71
448.15 K, 15070 kPa	737.86
448.15 K, 20050 kPa	745.94
448.15 K, 25050 kPa	753.39
448.15 K, 30040 kPa	760.21
448.15 K, 35040 kPa	766.59
448.15 K, 40020 kPa	772.48
448.15 K, 45030 kPa	778.13
448.15 K, 50030 kPa	783.39
448.15 K, 55060 kPa	788.44
448.15 K, 60010 kPa	793.17
448.15 K, 65060 kPa	797.83
473.15 K, 1030 kPa	676.8
473.15 K, 5050 kPa	689.34
473.15 K, 10050 kPa	702.19
473.15 K, 15060 kPa	713.2
473.15 K, 20020 kPa	722.73
473.15 K, 25040 kPa	731.39
473.15 K, 30010 kPa	739.18
473.15 K, 35040 kPa	746.42
473.15 K, 40050 kPa	753.09
473.15 K, 45060 kPa	759.38
473.15 K, 50050 kPa	765.18
473.15 K, 55020 kPa	770.69
473.15 K, 60030 kPa	775.95
473.15 K, 65020 kPa	780.92
